From ChEMBL document CHEMBL1138963, “Design, synthesis, and pharmacological evaluation of R/S-3,4-dihydro-2,2-dimethyl- 6-halo-4-(phenylaminocarbonylamino)-2H-1-benzopyrans: toward tissue-selective pancreatic beta-cell KATP channel openers structurally related to (+/-)-cromakalim” (J Med Chem, 2006) come the findings set out here.

pEC50, pIC50: −log10 of the molar value.

Experiment [1] deals with Pancreatic beta cell. Nature of the experiment: Residual insulin release in Wistar rat pancreatic islet beta cells in presence of glucose at 10 uM. The format is functional.
The species named for the next experiment is Rattus norvegicus. As to the kind of experiment: Myorelaxant activity against KCL-induced contraction of Wistar rat aortic rings. The format is functional. As to conditions: Aorta.
Experiment [2] has as its system Pancreatic beta cell. Nature of the experiment: Residual insulin release in Wistar rat pancreatic islet beta cells in presence of glucose at 1 uM. The format is functional.
Experiment [3] relates to Pancreatic beta cell. Nature of the experiment: Inhibition of insulin release in Wistar rat pancreatic islet beta cells. The format is functional, cell-based.
The subject of experiment [4] is Pancreatic beta cell. As to the kind of experiment: Selectivity ratio, IC50 for Wistar rat pancreatic islet beta cells/EC50 for aortic rings. The format is functional.

What is called pEC50 is −log10 of the EC50, conventionally taken in molar units. Lower therefore signals a high EC50. What is called pIC50 is the IC50 on a negative log10 scale, so that one unit is a factor of ten. As for `CC1(C)Oc2ccc(C#N)cc2C(N2CCCC2=O)C1O` (racemic) [CROMAKALIM], the results for the Activity in the experiment with Pancreatic beta cell [1] and in the experiment with Pancreatic beta cell [2] were 94.4% and 95.3%, respectively. In the experiment listed under Rattus norvegicus, this molecule showed a pEC50 of 6.89. The pIC50 in the experiment on Pancreatic beta cell [3] is < 4.00. In addition, the Selectivity ratio with Pancreatic beta cell [4] was >769.23.
With `CC1(C)CC(NC(=O)Nc2ccccc2Cl)c2cc(Cl)ccc2O1` (stereo not drawn), the Activity in the experiment on Pancreatic beta cell [1] was 40.3%. Besides, in the experiment filed under Rattus norvegicus, the pEC50 was < 3.52.
Consider `CC1(C)CC(NC(=O)Nc2ccc(Cl)cc2)c2cc(Br)ccc2O1` (stereo not drawn), for which the Activity with Pancreatic beta cell [1] is recorded as 25.7%; with Pancreatic beta cell [2] it was 92.2%. Further, in the experiment listed under Rattus norvegicus, the negative-log EC50 (pEC50) was < 3.52. In addition, the pIC50 in the experiment with Pancreatic beta cell [3] is 5.41. Further, the Selectivity ratio in the experiment on Pancreatic beta cell [4] is <0.01.
Regarding `CC1(C)CC(NC(=O)Nc2cccc(Cl)c2)c2cc(F)ccc2O1` (stereo not drawn), the figures for the Activity in the experiment with Pancreatic beta cell [1] and with Pancreatic beta cell [2] were 28% and 86%, respectively. In addition, the negative logarithm of the EC50 (pEC50) in the experiment listed under Rattus norvegicus was < 3.52. The same molecule gave a pIC50 with Pancreatic beta cell [3] of 5.44. For the same molecule, the Selectivity ratio with Pancreatic beta cell [4] is <0.01.
Consider `COc1ccccc1NC(=O)NC1CC(C)(C)Oc2ccc(Br)cc21` (stereo not drawn), for which the Activity in the experiment with Pancreatic beta cell [1] is 72.8%. Besides, the negative logarithm of the EC50 (pEC50) in the experiment filed under Rattus norvegicus is < 5.00.
For `CC1(C)CC(NC(=O)Nc2cccc(Cl)c2)c2cc(Br)ccc2O1` (stereo not drawn), the Activity came to 28.6% in the experiment with Pancreatic beta cell [1] and 91.5% with Pancreatic beta cell [2]. Further, in the experiment filed under Rattus norvegicus, the negative-log EC50 (pEC50) is < 4.52. This molecule had a negative logarithm of the IC50 (pIC50) in the experiment with Pancreatic beta cell [3] of 5.39. In addition, the Selectivity ratio in the experiment on Pancreatic beta cell [4] is listed as <0.14.
Regarding `Cc1ccccc1NC(=O)NC1CC(C)(C)Oc2ccc(Br)cc21` (stereo not drawn), in the experiment on Pancreatic beta cell [1], the Activity is reported as 79.5%. Also, in the experiment listed under Rattus norvegicus, the pEC50 is < 4.52.
`CC1(C)CC(NC(=O)Nc2ccccc2)c2cc(Br)ccc2O1` (stereo not drawn): the Activity in the experiment on Pancreatic beta cell [1] is 75.9%. Besides, the negative logarithm of the EC50 (pEC50) in the experiment filed under Rattus norvegicus was 5.64.
For the molecule `CC1(C)CC(NC(=O)Nc2ccccc2)c2cc(Cl)ccc2O1` (stereo not drawn), in the experiment with Pancreatic beta cell [1], the Activity turned out to be 87.7%. In addition, the pEC50 in the experiment filed under Rattus norvegicus was 5.11.
On to `Cc1cccc(NC(=O)NC2CC(C)(C)Oc3ccc(F)cc32)c1` (stereo not drawn), for which, in the experiment on Pancreatic beta cell [1], the Activity is on record as 75.2%. Also, the negative-log EC50 (pEC50) in the experiment filed under Rattus norvegicus was < 4.52.
For the molecule `CC1(C)CC(NC(=O)Nc2ccccc2)c2cc(F)ccc2O1` (stereo not drawn), the Activity in the experiment with Pancreatic beta cell [1] was 83.8%. The pEC50 in the experiment listed under Rattus norvegicus was 4.77.
Take `CC1(C)CC(NC(=O)Nc2ccc(Cl)cc2)c2cc(F)ccc2O1` (stereo not drawn): the Activity in the experiment on Pancreatic beta cell [1] was found to be 22.8%; in the experiment with Pancreatic beta cell [2], 91.4%. In addition, the pEC50 in the experiment filed under Rattus norvegicus was < 4.52. For the same molecule, in the experiment with Pancreatic beta cell [3], the negative logarithm of the IC50 (pIC50) was 5.44. Further, the Selectivity ratio in the experiment with Pancreatic beta cell [4] is <0.12.
Consider `COc1ccc(NC(=O)NC2CC(C)(C)Oc3ccc(F)cc32)cc1` (stereo not drawn), for which the Activity in the experiment on Pancreatic beta cell [1] stood at 89%. The negative-log EC50 (pEC50) in the experiment filed under Rattus norvegicus is 4.81.
On the same counts, the results for `Cc1cccc(NC(=O)NC2CC(C)(C)Oc3ccc(Br)cc32)c1` (stereo not drawn) are 63.4% and < 5.00.
For the molecule `CC1(C)CC(NC(=O)Nc2ccccc2Cl)c2cc(Br)ccc2O1` (stereo not drawn), the Activity in the experiment with Pancreatic beta cell [1] stood at 41.8%. Besides, the pEC50 in the experiment listed under Rattus norvegicus is < 4.52.
Regarding `COc1ccc(NC(=O)NC2CC(C)(C)Oc3ccc(Br)cc32)cc1` (stereo not drawn), the Activity in the experiment on Pancreatic beta cell [1] is listed as 79.2%. In the experiment listed under Rattus norvegicus, the pEC50 is < 5.00.
For `Cc1ccc(NC(=O)NC2CC(C)(C)Oc3ccc(Cl)cc32)cc1` (stereo not drawn), in that order: 69.5% and < 4.52.
For `COc1cccc(NC(=O)NC2CC(C)(C)Oc3ccc(F)cc32)c1` (stereo not drawn), the Activity in the experiment on Pancreatic beta cell [1] worked out at 66.6%. Also, the negative logarithm of the EC50 (pEC50) in the experiment filed under Rattus norvegicus was < 5.00.
For `COc1cccc(NC(=O)NC2CC(C)(C)Oc3ccc(Cl)cc32)c1` (stereo not drawn), in that order: 84% and < 5.00.
On the same counts, the results for `Cc1ccccc1NC(=O)NC1CC(C)(C)Oc2ccc(Cl)cc21` (stereo not drawn) are 85% and < 5.00.
On the same counts, the results for `Cc1ccc(NC(=O)NC2CC(C)(C)Oc3ccc(Br)cc32)cc1` (stereo not drawn) are 72.9% and < 4.52.
Regarding `CC1(C)CC(NC(=O)Nc2ccccc2Cl)c2cc(F)ccc2O1` (stereo not drawn), in the experiment with Pancreatic beta cell [1], the Activity was determined as 51.4%. Moreover, in the experiment filed under Rattus norvegicus, the negative-log EC50 (pEC50) was < 4.52.
On to `Cc1cccc(NC(=O)NC2CC(C)(C)Oc3ccc(Cl)cc32)c1` (stereo not drawn), for which the Activity in the experiment on Pancreatic beta cell [1] is on record as 65.8%. Besides, the negative logarithm of the EC50 (pEC50) in the experiment listed under Rattus norvegicus is < 5.00.
On to `Cc1ccc(NC(=O)NC2CC(C)(C)Oc3ccc(F)cc32)cc1` (stereo not drawn), for which, in the experiment on Pancreatic beta cell [1], the Activity stood at 70.6%. In addition, in the experiment listed under Rattus norvegicus, the pEC50 is < 4.52.
For `Cc1ccccc1NC(=O)NC1CC(C)(C)Oc2ccc(F)cc21` (stereo not drawn), in that order: 79% and < 4.52.
On the same counts, the results for `COc1ccc(NC(=O)NC2CC(C)(C)Oc3ccc(Cl)cc32)cc1` (stereo not drawn) are 79.3% and < 4.52.
For `COc1ccccc1NC(=O)NC1CC(C)(C)Oc2ccc(Cl)cc21` (stereo not drawn), in that order: 94.6% and < 5.00.
As to `COc1ccccc1NC(=O)NC1CC(C)(C)Oc2ccc(F)cc21` (stereo not drawn), the Activity in the experiment with Pancreatic beta cell [1] stood at 84.4%. In the experiment filed under Rattus norvegicus, the negative logarithm of the EC50 (pEC50) is < 5.00.
`COc1cccc(NC(=O)NC2CC(C)(C)Oc3ccc(Br)cc32)c1` (stereo not drawn): the Activity in the experiment with Pancreatic beta cell [1] is recorded as 73.5%. Further, the negative-log EC50 (pEC50) in the experiment filed under Rattus norvegicus is < 5.00.
